Data taken from patent US7981903B2, “2-[2-{phenylamino}-1H-pyrrolo[2,3-D]pyrimidin-4-yl)amino] benzamide derivatives as IGF-1R inhibitors for the treatment of cancer” (GlaxoSmithKline LLC, priority 2007, dated 2011).

biological target: T1, human IGF1R (hIGF1R) (Homo sapiens, UniProt P08069); experiment: TR-FRET kinase assay of purified hIGF1R; type: biochemical; details: activated hIGF1R 0.5 nM, 10 μM ATP, values given as pIC50 category, read-out: IGF-1R pIC50 (converted)
T1 construct: containing amino acid residues 957-1367 of human IGF1R; made in house; host or cells: Sf9 cells (baculovirus)
T1 sequence (P08069 957-1367): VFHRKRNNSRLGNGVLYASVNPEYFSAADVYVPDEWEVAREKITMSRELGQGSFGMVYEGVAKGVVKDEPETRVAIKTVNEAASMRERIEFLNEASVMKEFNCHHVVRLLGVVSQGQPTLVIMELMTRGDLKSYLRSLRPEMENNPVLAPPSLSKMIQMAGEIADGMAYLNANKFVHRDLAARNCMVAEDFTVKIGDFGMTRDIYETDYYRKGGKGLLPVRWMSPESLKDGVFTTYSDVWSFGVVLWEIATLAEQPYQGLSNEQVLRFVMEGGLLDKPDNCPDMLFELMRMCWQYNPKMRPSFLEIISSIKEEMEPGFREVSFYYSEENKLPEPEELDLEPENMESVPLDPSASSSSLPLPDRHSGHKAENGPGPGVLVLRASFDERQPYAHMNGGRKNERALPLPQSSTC

Q: How did the IC50 turn out when `COc1cc(N2CCOCC2)ccc1Nc1nc(Nc2cc(F)c(F)cc2C(N)=O)c2cc[nH]c2n1` [Example 104, 4,5-difluoro-2-[(2-{[2-(methyloxy)-4-(4-morpholinyl)phenyl]amino}-1H-pyrrolo[2,3-d]pyrimidin-4-yl)amino]benzamide] was run?
A: 0.251 to 1 nM

Q: Which IC50 does the source give for `COc1cc(N2CCC(N3CC[C@H](F)C3)CC2)ccc1Nc1nc(Nc2cc(F)ccc2C(N)=O)c2cc[nH]c2n1` [Example 75, 4-fluoro-2-[(2-{[4-{4-[(3S)-3-fluoro-1-pyrrolidinyl]-1-piperidinyl}-2-(methyloxy)phenyl]amino}-1H-pyrrolo[2,3-d]pyrimidin-4-yl)amino]benzamide] here?
A: 0.251 to 1 nM

Q: How did the IC50 turn out when `COc1cc2c(cc1Nc1nc(Nc3cccc(F)c3C(=O)NCC(C)C)c3cc[nH]c3n1)N(C(=O)CN(C)C)CC2` [Example 157, 2-[(2-{[1-(N,N-dimethylglycyl)-5-(methyloxy)-2,3-dihydro-1H-indol-6-yl]amino}-1H-pyrrolo[2,3-d]pyrimidin-4-yl)amino]-6-fluoro-N-(2-methylpropyl)benzamide] was run?
A: 1.26 to 3.98 nM

Q: For `COc1cc(N2CCC(C3CCN(CCS(C)(=O)=O)CC3)CC2)ccc1Nc1nc(Nc2cccc(F)c2C(N)=O)c2cc[nH]c2n1` [Example 112, 2-fluoro-6-({2-[(2-(methyloxy)-4-{1′-[2-(methylsulfonyl)ethyl]-4,4′-bipiperidin-1-yl}phenyl)amino]-1H-pyrrolo[2,3-d]pyrimidin-4-yl}amino)benzamide], which IC50 is on record?
A: 1.26 to 3.98 nM

Q: With `COc1cc2c(cc1Nc1nc(Nc3cccc(F)c3C(N)=O)c3cc[nH]c3n1)CN(C(C)C)CC2` [Example 236, 2-fluoro-6-[(2-{[2-(1-methylethyl)-6-(methyloxy)-1,2,3,4-tetrahydro-7-isoquinolinyl]amino}-1H-pyrrolo[2,3-d]pyrimidin-4-yl)amino]benzamide] as the molecule, how does the IC50 read?
A: 1.26 to 3.98 nM

Q: Which IC50 does the source give for `CCC(C)N1CCc2cc(OC)c(Nc3nc(Nc4cccc(F)c4C(N)=O)c4cc[nH]c4n3)cc2C1` (centres unmarked) [Example 237, 2-fluoro-6-[(2-{[6-(methyloxy)-2-(1-methylpropyl)-1,2,3,4-tetrahydro-7-isoquinolinyl]amino}-1H-pyrrolo[2,3-d]pyrimidin-4-yl)amino]benzamide] here?
A: 1.26 to 3.98 nM

Q: How did the IC50 turn out when `COc1cc2c(cc1Nc1nc(Nc3cc(F)cc(F)c3C(N)=O)c3cc[nH]c3n1)CN(CCF)CC2` [Example 239, 2,4-difluoro-6-[(2-{[2-(2-fluoroethyl)-6-(methyloxy)-1,2,3,4-tetrahydro-7-isoquinolinyl]amino}-1H-pyrrolo[2,3-d]pyrimidin-4-yl)amino]benzamide] was run?
A: 1.26 to 3.98 nM

Q: With `CCNC(=O)c1c(F)cccc1Nc1nc(Nc2cc3c(cc2OC)CCN3C(=O)CN(C)C)nc2[nH]ccc12` [Example 126, 2-[(2-{[1-(N,N-dimethylglycyl)-5-(methyloxy)-2,3-dihydro-1H-indol-6-yl]amino}-1H-pyrrolo[2,3-d]pyrimidin-4-yl)amino]-N-ethyl-6-fluorobenzamide] as the molecule, how does the IC50 read?
A: 1.26 to 3.98 nM

Q: Which IC50 does the source give for `COc1cc(N2CCC(N3CCCCC3)CC2)ccc1Nc1nc(Nc2cc(F)c(F)cc2C(N)=O)c2cc[nH]c2n1` [Example 100, 2-[(2-{[4-(1,4′-bipiperidin-1′-yl)-2-(methyloxy)phenyl]amino}-1H-pyrrolo[2,3-d]pyrimidin-4-yl)amino]-4,5-difluorobenzamide] here?
A: 0.251 to 1 nM

Q: With `COc1cc2c(cc1Nc1nc(Nc3ccc(F)c(F)c3C(N)=O)c3cc[nH]c3n1)N(C(=O)CN(C)C)CCC2` [Example 162, 6-[(2-{[1-(N,N-dimethylglycyl)-6-(methyloxy)-1,2,3,4-tetrahydro-7-quinolinyl]amino}-1H-pyrrolo[2,3-d]pyrimidin-4-yl)amino]-2,3-difluorobenzamide] as the molecule, how does the IC50 read?
A: 1.26 to 3.98 nM

Q: Which IC50 does the source give for `COc1cc(N2CCN(C(C)C)CC2)c(F)cc1Nc1nc(Nc2cccc(F)c2C(N)=O)c2cc[nH]c2n1` [Example 48, 2-fluoro-6-[(2-{[5-fluoro-4-[4-(1-methylethyl)-1-piperazinyl]-2-(methyloxy)phenyl]amino}-1H-pyrrolo[2,3-d]pyrimidin-4-yl)amino]benzamide] here?
A: 1.26 to 3.98 nM

Q: `CNC(=O)c1c(F)cccc1Nc1nc(Nc2cc3c(cc2OC)CCN3C(=O)CN2CCCC2)nc2[nH]ccc12` [Example 139, 2-fluoro-N-methyl-6-[(2-{[5-(methyloxy)-1-(1-pyrrolidinylacetyl)-2,3-dihydro-1H-indol-6-yl]amino}-1H-pyrrolo[2,3-d]pyrimidin-4-yl)amino]benzamide] was tested. Which IC50 did it give?
A: 1.26 to 3.98 nM

Q: For `CCCNC(=O)c1c(F)cccc1Nc1nc(Nc2cc3c(cc2OC)CCN3C(=O)CN(C)C)nc2[nH]ccc12` [Example 156, 2-[(2-{[1-(N,N-dimethylglycyl)-5-(methyloxy)-2,3-dihydro-1H-indol-6-yl]amino}-1H-pyrrolo[2,3-d]pyrimidin-4-yl)amino]-6-fluoro-N-propylbenzamide], which IC50 is on record?
A: 1.26 to 3.98 nM

Q: With `COc1cc(N2CCC(O)CC2)ccc1Nc1nc(Nc2cc(F)c(F)cc2C(N)=O)c2cc[nH]c2n1` [Example 99] as the molecule, how does the IC50 read?
A: 0.251 to 1 nM

Q: `COc1cc(N2CCC(N3CCOCC3)CC2)ccc1Nc1nc(Nc2ccc(F)cc2C(N)=O)c2cc[nH]c2n1` [Example 59, 5-fluoro-2-{[2-({2-(methyloxy)-4-[4-(4-morpholinyl)-1-piperidinyl]phenyl}amino)-1H-pyrrolo[2,3-d]pyrimidin-4-yl]amino}benzamide] was tested. Which IC50 did it give?
A: 1.26 to 3.98 nM

Q: For `CNC(=O)c1c(F)cccc1Nc1nc(Nc2cc3c(cc2OC)CCN3C(=O)CN(C)C)nc2[nH]cc(F)c12` [Example 253, 2-[(2-{[1-(N,N-dimethylglycyl)-5-(methyloxy)-2,3-dihydro-1H-indol-6-yl]amino}-5-fluoro-1H-pyrrolo[2,3-d]pyrimidin-4-yl)amino]-6-fluoro-N-methylbenzamide], which IC50 is on record?
A: 1.26 to 3.98 nM

Q: `CNCC(=O)N1CCc2cc(OC)c(Nc3nc(Nc4cccc(F)c4C(N)=O)c4cc[nH]c4n3)cc21` [Example 142, 2-fluoro-6-[(2-{[1-(N-methylglycyl)-5-(methyloxy)-2,3-dihydro-1H-indol-6-yl]amino}-1H-pyrrolo[2,3-d]pyrimidin-4-yl)amino]benzamide] was tested. Which IC50 did it give?
A: 1.26 to 3.98 nM

Q: `CCN(CC)CC(=O)N1CCc2cc(OC)c(Nc3nc(Nc4cccc(F)c4C(N)=O)c4cc[nH]c4n3)cc21` [Example 136, 2-[(2-{[1-(N,N-diethylglycyl)-5-(methyloxy)-2,3-dihydro-1H-indol-6-yl]amino}-1H-pyrrolo[2,3-d]pyrimidin-4-yl)amino]-6-fluorobenzamide] was tested. Which IC50 did it give?
A: 1.26 to 3.98 nM

Q: `COc1cc(N2CCOC[C@@H]2C)ccc1Nc1nc(Nc2cccc(F)c2C(N)=O)c2cc[nH]c2n1` [Example 49, 2-fluoro-6-[(2-{[4-[(3S)-3-methyl-4-morpholinyl]-2-(methyloxy)phenyl]amino}-1H-pyrrolo[2,3-d]pyrimidin-4-yl)amino]benzamide] was tested. Which IC50 did it give?
A: 1.26 to 3.98 nM

Q: Which IC50 does the source give for `COc1cc(N2CCN(C(C)C)CC2)c(OC)cc1Nc1nc(Nc2cc(F)ccc2C(N)=O)c2cc[nH]c2n1` [Example 82, 4-fluoro-2-[(2-{[4-[4-(1-methylethyl)-1-piperazinyl]-2,5-bis(methyloxy)phenyl]amino}-1H-pyrrolo[2,3-d]pyrimidin-4-yl)amino]benzamide] here?
A: 1.26 to 3.98 nM

Q: `CNC(=O)c1c(F)cccc1Nc1nc(Nc2cc3c(cc2OC)C(C)(C)CN3C(=O)CN(C)C)nc2[nH]ccc12` [Example 127, 2-[(2-{[1-(N,N-dimethylglycyl)-3,3-dimethyl-5-(methyloxy)-2,3-dihydro-1H-indol-6-yl]amino}-1H-pyrrolo[2,3-d]pyrimidin-4-yl)amino]-6-fluoro-N-methylbenzamide] was tested. Which IC50 did it give?
A: 1.26 to 3.98 nM

Q: `COc1cc(N2CCN(C(C)C)CC2)ccc1Nc1nc(Nc2cccc(F)c2C(N)=O)c2cc[nH]c2n1` [Example 46, 2-fluoro-6-[(2-{[4-[4-(1-methylethyl)-1-piperazinyl]-2-(methyloxy)phenyl]amino}-1H-pyrrolo[2,3-d]pyrimidin-4-yl)amino]benzamide] was tested. Which IC50 did it give?
A: 1.26 to 3.98 nM

Q: How did the IC50 turn out when `COc1c(Nc2nc(Nc3cccc(F)c3C(N)=O)c3cc[nH]c3n2)ccc(N2CCN(C(C)C)CC2)c1F` [Example 51, 2-fluoro-6-[(2-{[3-fluoro-4-[4-(1-methylethyl)-1-piperazinyl]-2-(methyloxy)phenyl]amino}-1H-pyrrolo[2,3-d]pyrimidin-4-yl)amino]benzamide] was run?
A: 1.26 to 3.98 nM

Q: With `COc1cc2c(cc1Nc1nc(Nc3cccc(F)c3C(N)=O)c3cc[nH]c3n1)CN(CCF)CC2` [Example 233, 2-fluoro-6-[(2-{[2-(2-fluoroethyl)-6-(methyloxy)-1,2,3,4-tetrahydro-7-isoquinolinyl]amino}-1H-pyrrolo[2,3-d]pyrimidin-4-yl)amino]benzamide] as the molecule, how does the IC50 read?
A: 1.26 to 3.98 nM

Q: With `COc1cc(N2CCN(C(C)C)CC2)ccc1Nc1nc(Nc2cc(Cl)cc(F)c2C(N)=O)c2cc[nH]c2n1` [Example 93, 4-chloro-2-fluoro-6-[(2-{[4-[4-(1-methylethyl)-1-piperazinyl]-2-(methyloxy)phenyl]amino}-1H-pyrrolo[2,3-d]pyrimidin-4-yl)amino]benzamide] as the molecule, how does the IC50 read?
A: 1.26 to 3.98 nM

Q: Which IC50 does the source give for `CCCN1CCC(c2ccc(Nc3nc(Nc4cc(F)ccc4C(N)=O)c4cc[nH]c4n3)c(OC)c2)CC1` [Example 73, 4-fluoro-2-[(2-{[2-(methyloxy)-4-(1-propyl-4-piperidinyl)phenyl]amino}-1H-pyrrolo[2,3-d]pyrimidin-4-yl)amino]benzamide] here?
A: 0.251 to 1 nM

Q: `COc1cc2c(cc1Nc1nc(Nc3cccc(F)c3C(N)=O)c3cc[nH]c3n1)CCN2C(=O)CN(C)C` [Example 197, 2-[(2-{[1-(N,N-dimethylglycyl)-6-(methyloxy)-2,3-dihydro-1H-indol-5-yl]amino}-1H-pyrrolo[2,3-d]pyrimidin-4-yl)amino]-6-fluorobenzamide] was tested. Which IC50 did it give?
A: 1.26 to 3.98 nM

Q: How did the IC50 turn out when `COc1cc2c(cc1Nc1nc(Nc3cccc(F)c3C(N)=O)c3cc[nH]c3n1)CN(C(=O)CN(C)C)CC2` [Example 123, 2-[(2-{[2-(N,N-dimethylglycyl)-6-(methyloxy)-1,2,3,4-tetrahydro-7-isoquinolinyl]amino}-1H-pyrrolo[2,3-d]pyrimidin-4-yl)amino]-6-fluorobenzamide] was run?
A: 1.26 to 3.98 nM

Q: For `COc1cc(N2CCC(N3CCN(CCS(C)(=O)=O)CC3)CC2)ccc1Nc1nc(Nc2cccc(F)c2C(N)=O)c2cc[nH]c2n1` [Example 115, 2-fluoro-6-[(2-{[2-(methyloxy)-4-(4-{4-[2-(methylsulfonyl)ethyl]-1-piperazinyl}-1-piperidinyl)phenyl]amino}-1H-pyrrolo[2,3-d]pyrimidin-4-yl)amino]benzamide], which IC50 is on record?
A: 1.26 to 3.98 nM
